Source: patent publication US8372951B2, “Cell penetrating peptides for intracellular delivery” (National Tsing Hua University, priority 2010, dated 2013)
Entries after “also recorded” stand apart in the source; their conditions may differ. Residues, ends and D or L forms follow the SMILES beside them. No end group written: not given here. *: point of attachment. FITC = O=C1OC2(c3ccc(O)cc3Oc3cc(O)ccc32)c2ccc(NC(=S)*)cc21

Legend:
Assay type in all cases: cell-based
[1] = test system: Beas-2B cells; experiment: MTT cell viability assay; conditions: for cytotoxicity / cell death: Beas-2B cells, 24 h, MTT
Method: (§1) FIG. 7 illustrates in vitro delivery of peptidomimetic drug. (A). Cell viability assay. Beas-2B cells were incubated with 50 μM (KLAKLAK)2-ECP(32-41), ECP(32-41), or (KLAKLAK)2, at 37° C. for 24 h. Effects of (KLAKLAK)2-ECP(32-41) on the cell viability of Beas-2B, A549 and CHO-K1 cells (B), as well as Caco-2 and AGS cells (C). Cell viability in each group was determined by MTT assay and each experiment was performed in triplicate.
(§2) The cytotoxic effect of peptides on the cell growth were determined by a colorimetric assay using 3-(4,5-dimethylthiazol-2-yl)-2,5-diphenyltetrazolium bromide (MTT) (US Biological, Marblehead, Mass.). Cells were plated in a 96-well plate (1.0×10^4 cells/well) and incubated at 37° C. overnight. Each sample was incubated with the indicated concentration (1-100 μM) of peptide. Twenty-four hours after treatment with the indicated peptide, MTT was added, and cell growth was monitored at A570 to measure the mitochondrial-dependent formation of a colored product.

[2] = test system: Beas-2B cells; experiment: Flow cytometry of cellular uptake of fluorescence-labeled peptides/proteins; conditions: 37° C., 30 min; for cellular uptake of peptide cargo: 5 μM
Method: FIG. 2 illustrates cellular uptake of ECP(32-41). Beas-2B cells were incubated with 20 μM FITC (control) or FITC-ECP(32-41) at 37° C. for 30 min. After treatment, the cells were washed with 500 μl phosphate buffered saline (PBS) and treated with trypsin at 37° C. for 10 min to remove adherent extracellular peptides. The cells were resuspended in 500 μl PBS and analyzed by flow cytometry. The cellular uptake activity was expressed as mean fluorescence intensity (MFI) using FACScalibur (BD Biosciences, Franklin Lakes, N.J.) flow cytometer (FACS). The data represented the means of triplicate incubations.
FIG. 5 illustrates in vitro delivery of peptide. Beas-2B cells were incubated with 5 μM FITC (control), FITC-Dp2 or FITC-Dp2-ECP(32-41) at 37° C. for 1 h. After treatment, cells were washed with 500 μl PBS and treated with trypsin at 37° C. for 10 min to remove adherent extracellular peptides. The cells were resuspended in 500 μl PBS and analyzed by flow cytometry. The cellular uptake activity was expressed as mean fluorescence intensity (MFI) using FACScalibur (BD Biosciences, Franklin Lakes, N.J.) flow cytometer (FACS). The data represented the means of triplicate incubations.
FIG. 6 illustrates in vitro delivery of protein. […] The cells were resuspended in 500 μl PBS and analyzed by flow cytometry. The cellular uptake activity was expressed as mean fluorescence intensity (MFI) using FACScalibur (BD Biosciences, Franklin Lakes, N.J.) flow cytometer (FACS). […]
Cells (2.0×10^5 cells/well) were plated into a 6-well microplate and cultured for 24 h in RPMI 1640 medium containing 10% heat-inactivated bovine serum (Beas-2B). After complete adhesion, the cells were incubated at 37° C. with fluorescence-labeled peptides dissolved in fresh serum-containing medium prior to washing with PBS. […] The washing cycle was repeated again and the cells were suspended in PBS and subjected to fluorescence analysis on a FACScalibur (BD Biosciences, Franklin Lakes, N.J.) flow cytometer (FACS) using 488-nm laser excitation and a 515-545-nm emission filter. […]

[3] = test system: A549; experiment: MTT cell viability assay; conditions: A549, 24 h
Method: as §1, §2

[4] = test system: Caco-2; experiment: MTT cell viability assay; conditions: Caco-2, 24 h
Method: as §1, §2

[5] = test system: CHO-K1; experiment: MTT cell viability assay; conditions: CHO-K1, 24 h
Method: as §1, §2

[6] = test system: AGS; experiment: MTT cell viability assay; conditions: 24 h
Method: as §1, §2

[7] = test system: Beas-2B cells; experiment: Confocal microscopy of cellular uptake and intracellular distribution; conditions: for entry into Beas-2B cells (minimal length requirement): 5 μM FITC-labeled peptide, 30 min
Method: FIG. 3 illustrates intracellular distribution of cell-penetrating ECP(32-41). Beas-2B cells were incubated with 5 μM FITC-ECP(32-41) at 37° C. for 5 or 60 min. After wash with 1 ml PBS buffer twice, the cellular uptake was analyzed by confocal laser scanning microscopy. Magnification ford: 63×. Scale bar: 50
FIG. 4 illustrates minimal length requirement of cell penetration peptide. Beas-2B cells were incubated with 5 μM FITC-ECP(32-41), FITC-ECP(32-41)D1, and FITC-ECP(32-41)D2 separately at 37° C. for 30 min. After wash with 1 ml PBS buffer twice, the cellular uptake was analyzed by confocal laser scanning microscopy. Magnification fold: 40×. Scale bar: 50
Cells (1.0×10^4 cells/well) were plated on 18-mm glass-bottomed dishes (Marienfeld, Germany) and cultured in medium containing 10% heat-inactivated fetal bovine serum for 24 h. After complete adhesion, the cell culture medium was removed, and then incubated at 37° C. in fresh medium containing the fluorescence-labeled peptides. The cells were washed with PBS, then fixed by 2% (w/v) paraformaldehyde (PFA) in PBS for 15 min, and 50 mM ammonium chloride in PBS was added to quench with fluoresce from PFA. Distribution of the fluorescence-labeled peptides in the cells was analyzed using a confocal scanning laser microscope (Zeiss).

(KLAKLAK)2: previously reported proapoptotic domain, peptidomimetic, SEQ ID NO: 6 (KLAKLAKKLAKLAK; (KLAKLAK)2) [reference compound]
cell-penetrating activity ([1]; stated with the Beas-2B viability results (FIG. 7A)): lacking

FITC-Dp2: Dp2 peptide (SEQ ID NO: 4), the group 2 allergen of Dermatophagoides pteronyssinus, FITC-labeled (IIHRGKPFQLEAV; not fully specified (N-terminus); also: FITC label) [reference compound]
cellular uptake of peptide cargo [2]: only Dp2-ECP(32-41) was able to enter the cells

CC(C)C[C@H](NC(=O)[C@H](CCCCN)NC(=O)[C@H](C)NC(=O)[C@H](CC(C)C)NC(=O)[C@H](CCCCN)NC(=S)Nc1ccc2c(c1)C(=O)OC21c2ccc(O)cc2Oc2cc(O)ccc21)C(=O)N[C@@H](C)C(=O)N[C@@H](CCCCN)C(=O)N[C@@H](CCCCN)C(=O)N[C@@H](CC(C)C)C(=O)N[C@@H](C)C(=O)N[C@@H](CCCCN)C(=O)N[C@@H](CC(C)C)C(=O)N[C@@H](C)C(=O)N[C@@H](CCCCN)C(=O)N[C@@H](CC(N)=O)C(=O)N[C@@H](Cc1ccc(O)cc1)C(=O)N[C@@H](CCCNC(=N)N)C(=O)N[C@@H](Cc1c[nH]c2ccccc12)C(=O)N[C@@H](CCCNC(=N)N)C(=O)N[C@@H](CS)C(=O)N[C@@H](CCCCN)C(=O)N[C@@H](CC(N)=O)C(=O)N[C@@H](CCC(N)=O)C(=O)N[C@@H](CC(N)=O)C(=O)O [(KLAKLAK)2-ECP(32-41)] ({FITC}-KLAKLAKKLAKLAKNYRWRCKNQN-OH; N-terminus and C-terminus assumed)
cytotoxicity (cell viability) [3]: strong cytotoxicity
cytotoxicity / cell death ([1]; listed as FITC-(KLAKLAK)2-ECP(32-41)): induce markedly cell death; also recorded: strong cytotoxicity
cytotoxicity (cell viability) [4]: strong cytotoxicity
cytotoxicity (cell viability) [5]: strong cytotoxicity
cytotoxicity (cell viability) [6]: strong cytotoxicity

FITC-ECP(32-41): fluorochrome-tagged peptide, FITC-labeled ECP(32-41) (SEQ ID NO: 1) ({FITC}-NYRWRCKNQN)
cellular uptake (fluorescent signal shift) ([2]; 20 μM, trypsinized): significant uptake
fluorescence signal inside the cells ([7]; 5 μM, 5 min): a clear fluorescence signal inside the cells
fluorescence signal inside the cells ([7]; 5 μM, up to 60 min): Stronger signal

Dp2-ECP(32-41): recombinant Dp2 peptide fused with ECP(32-41), SEQ ID NO: 5 (IIHRGKPFQLEAVNYRWRCKNQN; Dp2-ECP(32-41))
cellular uptake of peptide cargo [2]: able to enter the cells

ECP(32-41) D1: C-terminally truncated ECP(32-41) peptide, SEQ ID NO: 2 (NYRWRCKNQ; ECP(32-41)D1)
entry into Beas-2B cells (minimal length requirement) ([7]; 37° C.): entered Beas-2B cells

ECP(32-41)D2: C-terminally truncated ECP(32-41) peptide, SEQ ID NO: 3 (NYRWRCKN; ECP(32-41)D2)
entry into Beas-2B cells (minimal length requirement) ([7]; 37° C.): could not

ECP(32-41): 10 amino acid cell penetrating peptide from eosinophil cationic protein residues 32-41, SEQ ID NO: 1 (NYRWRCKNQN; ECP(32-41))
entry into Beas-2B cells (minimal length requirement) ([7]; 37° C.): entered Beas-2B cells
intracellular localization ([7]; 5 μM, 37° C.): both cytoplasm and nucleus
cytotoxicity / cell death [1]: lacking
